{"source": "paper PMC5026118", "about": "(Journal of pharmaceutical sciences, 2016)", "assay": "Aqueous solubility determination at room temperature", "format": "physicochemical", "conditions": "water; for log Sw (mg/ml) / Sw (log) Experimental: aqueous solubility of the hydrate, room temperature; for Sw (log) Experimental: value in brackets"}
{"smiles": "Sc1ncnc2nc[nH]c12", "note": "[Mercaptopurine, mercaptopurine monohydrate]", "values": [{"measurement": "log Sw (mg/ml)", "result": "−0.93", "unit": "log mg/ml"}, {"measurement": "Sw (log) Experimental", "result": "−0.93", "unit": "log mg/ml"}, {"measurement": "solubility thermodynamic at 48 h", "setting": "thermodynamic from solid", "result": 120, "unit": "µg/mL"}]}
{"smiles": "O=c1c(O)c(-c2cc(O)c(O)c(O)c2)oc2cc(O)cc(O)c12", "note": "[Myricetin, Myricetin (MYR) monohydrate]", "values": [{"measurement": "log Sw (mg/ml)", "result": "−3.19", "unit": "log mg/ml"}, {"measurement": "Sw (log) Experimental", "result": "−3.19", "unit": "log mg/ml"}]}
